Series [1] has as its system BV-173R cells (T315I BCR-ABL). As to the kind of experiment: MTT assay after 72 h, BV-173R cells. Format: cell-based, human. Particulars: 72 h of drug incubation.
For series [2], the system named is A375 melanoma tumors. In words: A375 melanoma tumors in nude mice. Format: in vivo, Swiss nude mice. As to the method: Ten Swiss nude mice (6-7 weeks of age) were injected subcutaneously (sc) with […] A375 melanoma cells on Day 0. When tumor nodules were palpable (Day 8), animals were divided into 2 groups. One group (Control) received 0.1 ml DMSO/PEG (1:1) intraperitoneally (ip) every other day […] for a total of 14 injections. The second group received 40 mg/kg Degrasyn ip beginning on Day 8 and repeated every other day for a total of 14 injections. Body weight and tumor volumes (by calipers) were measured every other day, the latter plotted vs. time. […] All animals were euthanized when tumor volumes (in the control group) achieved the maximal allowable burden (1.5 cm^3). The average +/−S.E.M. tumor volume from 5 animals per group is shown.
Anti-tumor studies. Swiss Nu/Nu mice were obtained from the breeding facility in the Department of Experimental Radiotherapy at M.D. Anderson Cancer Center. On Day 0, 200 μl of an A375 cell suspension (5×10^6 cells/ml) were injected (s.c.) into female Swiss nude mice 6-7 weeks of age. At the interval noted, compounds were injected (i.p. or oral gavage) into tumor bearing mice in a 0.1 ml suspension of DMSO/PEG300 (50/50). Degrasyn (40 mg/kg) was administrated on an every other day schedule, for 5 or more injections. […] Tumor volumes were measured every other day using calipers (Cel Associates, Houston, Tex.).

The target of series [3] is T1, c-myc (Homo sapiens, UniProt P01106).
T1 construct: endogenous in cells; host or cells: MM-1 cells
T1 sequence (P01106 16-454 limits assumed): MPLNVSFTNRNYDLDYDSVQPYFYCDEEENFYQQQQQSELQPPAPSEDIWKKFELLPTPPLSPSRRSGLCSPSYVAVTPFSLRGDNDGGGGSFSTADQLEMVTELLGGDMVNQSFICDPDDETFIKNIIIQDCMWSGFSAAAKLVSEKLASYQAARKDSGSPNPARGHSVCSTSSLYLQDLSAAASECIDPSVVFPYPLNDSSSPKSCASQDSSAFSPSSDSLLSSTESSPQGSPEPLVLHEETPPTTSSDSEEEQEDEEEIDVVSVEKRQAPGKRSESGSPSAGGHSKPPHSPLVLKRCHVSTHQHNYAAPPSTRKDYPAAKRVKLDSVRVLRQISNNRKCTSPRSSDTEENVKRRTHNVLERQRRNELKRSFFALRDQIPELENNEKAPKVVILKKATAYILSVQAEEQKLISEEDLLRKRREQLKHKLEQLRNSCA
As to the kind of experiment: c-myc protein immunoblot in MM-1 cells. It counts as cell-based. As to the method:
Top: MM-1 cells were incubated with 5 μM Degrasyn for the interval noted before cell lysates were prepared and subjected to immunoblotting for c-myc and actin as a protein loading control.
Middle: MM-1 cells were treated with the indicated concentration of Degrasyn for 1 h before lysates were immunoblotted for c-myc and actin.
Bottom: MM-1 cells were treated as indicated before extraction of total RNA (TRIzol). RNA was resolved by agarose electrophoresis, transferred to a membrane and hybridized with a c-myc probe to determine the level of c-myc RNA in each sample. The ethidium bromide stained gel was photographed and 28S RNA content was detected as a measure of RNA content in each lane.
MM-1 cells were pretreated with protease/proteosome inhibitors (LLnL; LLnM; E-64d; MG132; PS341; Chloroquine; Ammonium Chloride; Cycloheximide) for 2 h before the addition of 5 μM Degrasyn or vehicle alone (DMSO as indicated) for an additional 2 h. Cell lysates were prepared and equal protein aliquots were subjected to immunoblotting for c-myc, Max (a c-myc binding partner) or actin as a protein loading control.
Pictured: MM-1 cells were treated with biotinylated Degrasyn (Bio-Deg) or Degrasyn (at the indicated concentration) for 1 h before analyzing effects on c-myc as described in FIG. 15.
Western Blot analysis. Cells were harvested, washed twice in cold 1×PBS and lysed in modified RIPA lysis buffer (150 mM NaCl, 1% NP-40, 0.5% Na-deoxycholate [DOC], 0.1% Na-dodecyl sulfate [SDS], 50 mM Tris-HCl (pH 7.5), 1 mM EDTA, 1 mM NaF, 2 mM Na-vanadate, with protease inhibitors (1 mM PMSF, 1 mM benzamidine, 10 μg/ml aprotinin, 10 μg/ml leupeptin) on ice for 30 min. The lysed cells were centrifuged at 13,000 rpm for 30 min and the supernatant collected. The protein concentration of the cell lysate was determined by the Bradford Protein Assay. Fifty to 60 μg of protein were resolved in a 10% SDS-PAGE, and transferred to a PVDF membrane. Western blotting was performed using specific primary antibodies Peroxidase-conjugated affiniPure anti-Mouse Anti-Rabbit secondary antibodies (Jackson Immunoresearch Laboratories, West Grove, Pa.). The proteins were visualized with ECL Plus reagents (Amersham Biosciences).

Series [4] concerns the target T2, HA-tagged c-myc (Homo sapiens, UniProt P01106).
T2 construct: labeled at the termini as 1 and 439; expressed in transfected cells; host or cells: HeLa
In words: HA-tagged c-myc stability in transfected HeLa cells. As to conditions: 1 h treatment. It counts as cell-based. As to the method:
Bottom: Expression vectors for HA-tagged c-myc or HA-tagged IKKγ (tagged at the N-terminus) were transfected (at the DNA content indicated) into HeLa cells as described in the methods section above. Twenty-four h later, cells were treated with Degrasyn for 1 h before harvesting cells, extracting protein and subjecting equal protein lysates to immunoblotting for c-myc (left) or IKKγ (right) using an HA-directed antibody. Actin was immunoblotted as a control for protein loading. […] These cells and transfection system were used to map the domains important for Degrasyn mediated destabilization by deletion analysis (FIG. 20).
Analysis of wild-type and mutant (deleted) c-myc protein stability. A c-myc expression vector (pCGN-MYC) was obtained from Dr. William Tansey (Cold Springs Harbor, N.Y.) and initially used to transfect HeLa cancer cells (with the SN2 cationic lipid). In subsequent studies, the c-myc gene was subcloned downstream of the HA antigen in the pcDNA3.1 vector, allowing efficient detection of transfected c-myc by anti-HA immunoblotting. Multiple site-specific mutations and domain deletions were introduced into the c-myc gene using the Stratagene Quickchange II XL kit and specific dual primer sets. The deletions/mutations were verified by direct sequencing before use. […]

T2 sequence (P01106 16-454): as the sequence (P01106 16-454 limits assumed) above

`CCC[C@H](NC(=O)/C(C#N)=C/c1cccc(Br)n1)c1ccccc1` [Degrasyn]: the “Activity in MTT assay, BV-173R vs BV-173” value in series [1] is on record as “equally active against both cell types”. Also, the Animal weight entry in series [2] (40 mg/kg ip every other day) is on record as “did not affect animal weight”. Also, the “Growth of A375 tumors (tumor volume)” value in series [2] (40 mg/kg ip every other day from Day 8, 14 injections) is reported as “suppresses the growth of A375 tumors in vivo”. The “c-myc protein content and c-myc RNA” value in series [3] was “reduces c-myc protein content without effecting c-myc gene expression”. The “c-myc protein, time course” value in series [3] (5 μM) is listed as “caused a rapid reduction of c-myc protein”. Moreover, the “c-myc protein, concentration dependence” value in series [3] (1 h) is given as “caused a concentration dependent reduction in c-myc protein levels”. Besides, the c-myc protein levels entry in series [3] (FIG. 21, 1 h) is on record as “reduced c-myc protein levels”. The “HA-tagged c-myc and HA-tagged IKKγ levels” value in series [4] is recorded as “reduced HA-tagged c-myc but did not affect HA-tagged IKKγ”.

Source of the values: patent US20100292229A1, “TRYPHOSTIN-ANALOGS FOR THE TREATMENT OF CELL PROLIFERATIVE DISEASES” (The Board of Regents of the University of Texas System, priority 2006, published 2010).
